{"source": "patent US10240133B2", "about": "“ERK-derived peptides and uses thereof” (Yeda Research and Development Co. Ltd., priority 2013, dated 2019)", "format_in_all_cases": "cell-based", "key": {"JNK2 and p38": {"system": "JNK2 and p38", "assay": "Nuclear translocation of other MAPKs (fluorescence microscopy)", "details": "HeLa cells; TPA or anisomycin", "method": "HeLa cells were serum-starved, pretreated with the EPE or Scr peptides, and then stimulated with either TPA (250 nM, 15 min), anisomycin (Anis, 10 μg/ml, 15 min) for the indicated times, or left untreated as control (NT). The cells were stained with αp38 or αgJNK Abs and DAPI. Scale bar—15 μm. (B) Extracts from cells treated as in A were analyzed by Western blotting with the indicated Abs.\nCells were fixed in 3% paraformaldehyde in PBS (20 min, 23° C.), and then permeabilized and blocked with 0.2% Triton X-100 in PBS-BSA (2%) for 20 min at 23° C. The fixed cells were sequentially incubated with appropriated Abs, (diluted in 10 μg/ml BSA/PBS) for 1 h, followed by either Cy-2 or rhodamine-conjugated secondary Abs and DAPI (diluted in BSA/PBS, 1:200) for 1 h. To follow the subcellular localization of the biotin-conjugated peptides, cells were incubated with Avidin-FITC (diluted in BSA/PBS 1:400) and DAPI. Slides were analyzed and photographed by a fluorescent microscope (Nikon, Japan, 600× magnification)."}, "AKT": {"system": "AKT", "assay": "Western blotting of AKT phosphorylation", "method": "(§1) (A) EPE peptide prevents ERK1/2-importin7 interaction. HeLa cells were serum starved (0.1%, 16 hours), pretreated with EPE peptide, scrambled peptide (10 μM, 2 hours) or DMSO, and then stimulated with TPA (250 nM, 15 min). ERK1 were precipitated with αgERK1 Ab; importin7 co-immunoprecipitated with ERK1 was detected by WB with αimportin7 Ab. […] T47D, HeLa, MDA-MB-231 and A2352 cells were serum starved (0.1%, 16 hours), pretreated with EPE peptide, scrambled peptide (10 μM, 2 hours) or DMSO control, and then stimulated with TPA (250 nM, indicated times). Cell extracts were subjected to Western blot analysis with the indicated Abs. (C) EPE peptide inhibits phosphorylation of c-Myc and Elk1 in B-Raf melanomas. A2158 and A2352 cells were treated with scrambled and EPE peptide for two hours and then stimulated with the indicated concentration of TPA for 30 min. […] (D) Quantification of some of the results in B and C. […]\n(§2) (i) Preparation of cellular extracts for Western Blotting: Cells were rinsed twice with ice-cold PBS and scraped into Radio-immunoprecipitation assay buffer (RIPA; 137 mM NaCl, 20 mM Tris (pH 7.4), 10% glycerol, 1% Triton X-100, 0.5% deoxycholate, 0.1% SDS, 2 mM EDTA, 1 mM PMSF, and 20 μM leupeptin). The extracts were centrifuged (20,000×g, 15 min, 4° C.), and the supernatants were further analyzed by Western blotting. […]"}, "c-Myc": {"system": "c-Myc", "assay": "Western blotting of c-Myc phosphorylation", "details": "A2158 and A2352 B-Raf melanomas", "method": "as §1, §2"}, "[1]": {"system": "immortalized, non-transformed cells", "assay": "Proliferation assay (Methylene Blue)", "details": "72 h after peptide administration, 10 μM", "method": "(§3) FIGS. 3A-3B illustrate that EPE peptide prevents proliferation of cancer but not normal cells. (A) Effect of the EPE peptide on the proliferation of various cell lines. Sixteen cancer and four “normal” immortalized cell lines were treated with either EPE or scrambled peptides as described above. Viable cells were assayed by Methylene Blue at 48 or 72 hours after cell seeding. The data from at least three independent experiments is presented as percent of the amount of viable cells/initial cell number, where initial cell number was considered as 100. (B) Comparison of the effects of the EPE-peptide and Raf inhibitor PLX4032 on cell viability. NHEM-Ad, LOXIMVI, A2352, Hela MDA-MB-231, and DU-145 cells were treated with EPE peptide, scrambled peptide, (10 μM), PLX4032 (1 μM), DMSO control, or no treatment at 1% FCS. The number of cells was detected as above. The graphs present the kinetic of cell growth at the indicated times. All experiments were repeated 3 times in triplicates.\n(§4) All cells, except of MCF-10A, were seeded into 12-well cell plates in 1% FBS medium. MCF-10A cells were seeded in their complete medium diluted 5 fold. DMSO, Scr peptide, EPE peptide, or U0126 (final concentration of 10 μM each) were added to the appropriated wells four hours later. Every day medium was changed to fresh one containing the same agents. The number of viable cells was measured by Methylene Blue assay at 72 h after cell seeding. Shortly, cells were fixed with 4% Formaldehyde for 2 h at 23° C., washed once with 0.1M Borate Buffer pH 8.5 and stained with of 1% Methylene Blue in 0.1M Borate Buffer for 10 min. Color was extracted by adding 0.1 M HCl for 3 h at 23° C., and examined at 595 nm. For time course experiments, viable cells were measured at 0, 24, 48, 72 and 96 h after cell seeding. For dose response experiments we treaded the cells with 0.1, 1, 3, 10, or 30 μM of peptides for 72 h, as described above."}, "[2]": {"system": "melanoma cells with oncogenic B-Raf (B-Raf melanoma)", "assay": "Proliferation assay (Methylene Blue)", "details": "72 h after peptide administration, 10 μM", "method": "as §3, §4"}, "[3]": {"system": "other melanomas, prostate and lung cancer-derived cells", "assay": "Proliferation assay (Methylene Blue)", "details": "72 h after peptide administration, 10 μM", "method": "as §3, §4"}, "[4]": {"system": "N-Ras transformed melanoma cells LOXIMVI", "assay": "Cell viability, EPE peptide compared with PLX4032", "details": "EPE 10 μM, PLX4032 1 μM, 1% FCS", "method": "as §3, §4"}, "[5]": {"system": "all other transformed cell lines examined (A2352, Hela, MDA-MB-231, DU-145)", "assay": "Cell viability, EPE peptide compared with PLX4032", "details": "EPE 10 μM, PLX4032 1 μM, 1% FCS", "method": "as §3, §4"}}, "note": "“Also recorded” adds a separate entry of the source.", "data": [{"sequence": "GQLNHILGILGEPEQED (Synthetic peptide (EPE)) [EPE peptide, NTS-derived peptide with phosphomimetic EPE motif]", "values": [{"measurement": "translocation of other MAPKs (JNK2, p38)", "setting": "JNK2 and p38", "value": "affected neither the translocation of other MAPKs; also recorded: does not affect the nuclear translocation of JNK2 and p38"}, {"measurement": "activation of AKT in resistant melanoma cells", "setting": "AKT; data not shown", "value": "No significant effects"}, {"measurement": "basal or stimulated phosphorylation of AKT", "setting": "AKT; shortly after stimulation or longer time periods after treatment", "value": "no effect on the basal or stimulated phosphorylation of AKT"}, {"measurement": "phosphorylation of c-Myc", "setting": "c-Myc", "value": "did inhibit"}, {"measurement": "proliferation (cell number)", "setting": "[1]", "value": "did not respond to the peptide at all"}, {"measurement": "proliferation (cell number)", "setting": "[2]", "value": "profound reduction in cell number"}, {"measurement": "proliferation (cell number)", "setting": "[3]", "value": "small decrease in cell growth"}, {"measurement": "viability", "setting": "[4]", "value": "able to reduce the viability"}, {"measurement": "effect on viability relative to PLX4032", "setting": "[5]", "value": "at least as good, or even better, than that of PLX4032"}]}]}
